# Laboratory results: ChEMBL document CHEMBL4190228, “Covalent inhibitors design and discovery” (Eur J Med Chem, 2017)
# Assays:
# [1] = molecular target: Tyrosine-protein kinase BTK (Homo sapiens) (UniProt Q06187); experiment: Receptor occupancy at BTK in human Ramos B cells at 1 uM preincubated for 1 hr followed by compound washout measured after 20 hrs by PP-BODIPY probe based fluorescence assay; type: cell-based
# Chain of Tyrosine-protein kinase BTK (Homo sapiens) (Q06187 whole entry): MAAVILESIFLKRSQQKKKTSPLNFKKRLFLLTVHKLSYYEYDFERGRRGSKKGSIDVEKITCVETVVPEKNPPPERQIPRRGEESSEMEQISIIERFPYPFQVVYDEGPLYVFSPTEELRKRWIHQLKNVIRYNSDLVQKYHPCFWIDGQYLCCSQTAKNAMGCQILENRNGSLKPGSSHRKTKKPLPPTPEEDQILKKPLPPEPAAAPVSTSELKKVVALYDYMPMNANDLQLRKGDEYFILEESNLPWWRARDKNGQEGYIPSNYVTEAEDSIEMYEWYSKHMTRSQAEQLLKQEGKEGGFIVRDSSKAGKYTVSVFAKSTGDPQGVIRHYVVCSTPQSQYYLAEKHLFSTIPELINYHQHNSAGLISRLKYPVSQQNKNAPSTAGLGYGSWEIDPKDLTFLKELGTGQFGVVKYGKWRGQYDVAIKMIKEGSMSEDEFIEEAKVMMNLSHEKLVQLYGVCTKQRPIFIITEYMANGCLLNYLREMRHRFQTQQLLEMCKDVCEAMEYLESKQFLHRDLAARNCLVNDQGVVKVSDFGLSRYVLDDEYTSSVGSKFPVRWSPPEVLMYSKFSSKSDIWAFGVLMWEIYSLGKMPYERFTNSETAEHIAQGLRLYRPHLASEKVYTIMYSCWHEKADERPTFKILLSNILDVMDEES
Structure (SMILES),Occ [1],T1/2 (Francisella tularensis)
C/C=C(\C#N)C(=O)N1CCC[C@@H](n2nc(-c3ccc(Oc4ccccc4)cc3)c3c(N)ncnc32)C1,5%,–
CC(C)(C)/C=C(\C#N)C(=O)N1CCC[C@@H](n2nc(-c3ccc(Oc4ccccc4)cc3)c3c(N)ncnc32)C1,50%,–
CC(C)(C)NC(=O)[C@H]1CC[C@H]2[C@@H]3CC[C@H]4NC(=O)C=C[C@]4(C)[C@H]3CC[C@]12C,–,4.7 to 7.1 h
